Like-named read-outs stand apart in the source and are kept apart here.

For eight compounds, Ki and IC50 results are on record in PMC10892019, “Molecular Characterization of Plant Volatile Compound Interactions with Cnaphalocrocis medinalis Odorant-Binding Proteins” (Plants, 2024).

Experiment [1] concerns the target SaveOBP9. Set-up: method as in PMID 33172024. As to conditions: SaveOBP9, strong binding force; cited from earlier work.
For experiment [2], the target named is CmedOBP1 (Cnaphalocrocis medinalis, UniProt H9XFD2). Description: Fluorescence competitive binding assay (1-NPN) with CmedOBP1. How it is done:
(§1) The method for fluorescence competition binding was the same as that described by Zeng et al. (2018). The fluorescent probe N-phenyl-1-naphthylamine (1-NPN) (Sangon Biotech, Shanghai, China) and phenylacetaldehyde, benzyl acetate, 1-heptanol, and hexanal (Aladdin, Shanghai, China) were diluted to 100 mM stocks in chromatographic-grade methanol and stored at −20 °C. Working solutions of 1 mM 1-NPN and each odorant were made up in methanol. Each CmedOBP solution was diluted in 1 mM Tris-HCl buffer to a final concentration of 2 μM.
(§2) The RF5301PC fluorescence spectrophotometer (Shimadzu, Japan) was operated at an excitation wavelength of 337 nm and an emission wavelength of 405 nm (with excitation and emission slits of 5 nm and 10 nm, respectively). For each protein solution, 2 mL of diluted protein was added to the quartz cuvette, then 4 μL aliquots of 1-NPN solution were added at 2 min intervals to bring the final concentration of the probe to 2 μM. After the fluorescence intensity was stable, the maximum fluorescence value was recorded. The 1 mM volatile samples dissolved in methanol were then added to a final concentration of 20 μM. After 2 min, when the fluorescence value no longer fluctuated, the maximum fluorescence value was recorded. Each odor sample was tested in three technical replicates.
(§3) The binding ability of each protein to each odorant was determined by plotting the fluorescence intensity against the ligand concentration. Trend lines were linearized with the Scatchard method, then used to calculate the half-maximal inhibition concentration (IC50) of the ligand. The competition constant was calculated from the IC50 value as follows: Ki = [IC50]/(1 + [1-NPN]/K1-NPN) where 1-NPN is the concentration of free 1-NPN, and K1-NPN is the dissociation constant of the CmedOBP/[1-NPN] complex. The dissociation constant (Ki) was inversely correlated with the binding force between the protein and the odorant. At Ki > 50 μmol/L, the protein was considered to have no binding force with the volatile; at 20 μmol/L < Ki < 50 μmol/L, the protein was considered to have a weak binding force with the volatile; and at 0 μmol/L < Ki < 20 μmol/L, the protein was considered to have a strong binding force with the analyzed volatile.

Experiment [3] concerns the target CmedOBP15 (Cnaphalocrocis medinalis, UniProt A0A0U3C6L3). Description: Fluorescence competitive binding assay (1-NPN) with CmedOBP15. How it is done: as §1, §2, §3
Experiment [4] addresses CmedOBP6 (Cnaphalocrocis medinalis, UniProt A0A0U3C2E7). Briefly: Fluorescence competitive binding assay (1-NPN) with CmedOBP6. How it is done:
as §1, §2, §3

Experiment [5] deals with CmedGOBP1 (Cnaphalocrocis medinalis, UniProt H9XFD0). Briefly: Fluorescence competitive binding assay (1-NPN) with CmedGOBP1. How it is done: as §1, §2, §3
CmedGOBP1, sequence (H9XFD0 entry or part of it): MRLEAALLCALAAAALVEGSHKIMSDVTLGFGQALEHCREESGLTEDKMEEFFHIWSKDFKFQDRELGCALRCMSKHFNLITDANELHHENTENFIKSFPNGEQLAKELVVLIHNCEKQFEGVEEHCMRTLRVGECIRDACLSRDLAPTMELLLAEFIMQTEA
Experiment [6] concerns the target CmedOBP26 (Cnaphalocrocis medinalis, UniProt A0A1P8SKA7). Briefly: Fluorescence competitive binding assay (1-NPN) with CmedOBP26. How it is done: as §1, §2, §3
The target of experiment [7] is CmedPBP2 (Cnaphalocrocis medinalis, UniProt M4YHW5). Briefly: Fluorescence competitive binding assay (1-NPN) with CmedPBP2. How it is done: as §1, §2, §3
CmedPBP2, sequence (M4YHW5 entry or part of it): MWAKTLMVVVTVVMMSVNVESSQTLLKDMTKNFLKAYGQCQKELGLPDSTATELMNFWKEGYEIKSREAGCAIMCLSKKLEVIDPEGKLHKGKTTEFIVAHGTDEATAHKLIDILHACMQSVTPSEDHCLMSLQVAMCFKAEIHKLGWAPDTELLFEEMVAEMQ
Experiment [8] concerns the target CmedGOBP2 (Cnaphalocrocis medinalis, UniProt H9XFD1). Description: Fluorescence competitive binding assay (1-NPN) with CmedGOBP2. How it is done:
as §1, §2, §3

The mark [9] stands for this setting: CmedOBP1 2 μM, 1-NPN probe 2 μM, calculated from IC50, read-out: Ki.
Where [10] appears, read: CmedOBP1 2 μM, 1-NPN probe 2 μM, read-out: IC50.
[11] abbreviates: CmedOBP15 2 μM, 1-NPN probe 2 μM, calculated from IC50, read-out: Ki.
[12] abbreviates: CmedOBP15 2 μM, 1-NPN probe 2 μM, read-out: IC50.
Setting [13] is: CmedOBP6 2 μM, 1-NPN probe 2 μM, calculated from IC50, read-out: Ki.
Setting [14] is: CmedOBP6 2 μM, 1-NPN probe 2 μM, read-out: IC50.
[15] abbreviates: CmedGOBP1 2 μM, 1-NPN probe 2 μM, calculated from IC50, read-out: Ki.
[16] abbreviates: CmedGOBP1 2 μM, 1-NPN probe 2 μM, read-out: IC50.
Setting [17] is: CmedOBP26 2 μM, 1-NPN probe 2 μM, calculated from IC50, read-out: Ki.
Setting [18] is: CmedOBP26 2 μM, 1-NPN probe 2 μM, read-out: IC50.
[19] abbreviates: CmedPBP2 2 μM, 1-NPN probe 2 μM, calculated from IC50, read-out: Ki.
The mark [20] stands for this setting: CmedPBP2 2 μM, 1-NPN probe 2 μM, read-out: IC50.
Where [21] appears, read: CmedGOBP2 2 μM, 1-NPN probe 2 μM, calculated from IC50, read-out: Ki.
[22] abbreviates: CmedGOBP2 2 μM, 1-NPN probe 2 μM, read-out: IC50.
[23] abbreviates: Ki, CmedOBP1 2 μM, 1-NPN probe 2 μM, calculated from IC50.
Where [24] appears, read: Ki, CmedOBP15 2 μM, 1-NPN probe 2 μM, calculated from IC50.

CmedOBP6, sequence (A0A0U3C2E7 entry or part of it): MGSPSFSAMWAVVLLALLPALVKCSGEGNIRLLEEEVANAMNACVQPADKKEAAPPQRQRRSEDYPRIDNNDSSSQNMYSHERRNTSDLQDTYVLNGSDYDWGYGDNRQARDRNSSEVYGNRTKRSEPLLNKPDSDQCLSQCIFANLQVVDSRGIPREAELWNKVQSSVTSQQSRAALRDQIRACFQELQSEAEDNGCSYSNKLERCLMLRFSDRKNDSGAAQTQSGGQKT
CmedOBP26, sequence (A0A1P8SKA7 entry or part of it): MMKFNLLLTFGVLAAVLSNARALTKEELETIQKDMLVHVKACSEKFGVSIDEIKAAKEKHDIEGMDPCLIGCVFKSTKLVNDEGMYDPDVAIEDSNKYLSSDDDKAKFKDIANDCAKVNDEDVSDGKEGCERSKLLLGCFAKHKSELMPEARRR
CmedGOBP2, sequence (H9XFD1 entry or part of it): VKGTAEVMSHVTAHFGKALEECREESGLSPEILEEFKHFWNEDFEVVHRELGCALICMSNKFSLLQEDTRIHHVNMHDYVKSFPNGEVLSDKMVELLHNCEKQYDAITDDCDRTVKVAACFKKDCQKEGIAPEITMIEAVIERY
CmedOBP1, sequence (H9XFD2 entry or part of it): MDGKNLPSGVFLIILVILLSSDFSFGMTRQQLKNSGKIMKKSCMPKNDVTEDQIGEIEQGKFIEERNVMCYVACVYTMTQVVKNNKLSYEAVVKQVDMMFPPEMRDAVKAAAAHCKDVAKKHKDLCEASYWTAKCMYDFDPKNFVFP
CmedOBP15, sequence (A0A0U3C6L3 entry or part of it): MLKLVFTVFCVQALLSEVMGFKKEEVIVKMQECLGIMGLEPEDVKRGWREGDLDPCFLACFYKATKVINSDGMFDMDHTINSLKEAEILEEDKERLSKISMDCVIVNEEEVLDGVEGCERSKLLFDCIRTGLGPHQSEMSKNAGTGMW

For the compound `CCCCCCCC=O` [octanal], the inhibition constant Ki in experiment [1] is less than 10 µM.

With `CCCCCCCO` [1-Heptanol, 1-heptanol], the Ki in experiment [2] (setting [9]) is 12 µM; in experiment [2] (CmedOBP1, read-out: Ki value), less than 20 µM; in experiment [3] (setting [11]), greater than 50 µM; in experiment [4] (setting [13]) it was greater than 50 µM; in experiment [5] (setting [15]), greater than 50 µM; in experiment [6] (setting [17]) it was 31.9 µM. In addition, the Ki in experiment [6] (CmedOBP26, read-out: Ki value) is 20 to 50 µM; in experiment [7] (setting [19]), greater than 50 µM; in experiment [8] (setting [21]), greater than 50 µM. The IC50 was 68.1 µM in experiment [2] (setting [10]); 290 µM in experiment [3] (setting [12]); 624 µM in experiment [4] (setting [14]); 219 µM in experiment [5] (setting [16]); 52.3 µM in experiment [6] (setting [18]); 224 µM in experiment [7] (setting [20]). For the same compound, in experiment [8] (setting [22]), the IC50 is 99.7 µM.

`CCCCCCCCCCCCCC` [tetradecane]: the Ki in experiment [1] is less than 10 µM.

Turning to `O=CCc1ccccc1` [Phenylacetaldehyde, phenylacetaldehyde], the IC50 is 77.5 µM in experiment [2]; 44.3 µM in experiment [3]; 357 µM in experiment [4]; 162 µM in experiment [5]; 458 µM in experiment [6]; 85.8 µM in experiment [7]. This compound also yielded a half-inhibitory concentration (IC50) in experiment [8] of 123 µM. In addition, the Ki was less than 20 µM in experiment [2] (Ki value, CmedOBP1); 13.7 µM in experiment [2] (setting [23]); less than 20 µM in experiment [3] (Ki value, CmedOBP15); 17.5 µM in experiment [3] (setting [24]); greater than 50 µM in experiment [4]; greater than 50 µM in experiment [5]. Further, the Ki in experiment [6], in experiment [7] and in experiment [8] was greater than 50 µM each time.

In the case of `CC(=O)OCc1ccccc1` [Benzyl Acetate, benzyl acetate], the Ki in experiment [2] (setting [9]) was 31.5 µM; in experiment [3] (setting [11]) it was 13.6 µM; in experiment [3] (CmedOBP15, read-out: Ki value) it was less than 20 µM; in experiment [4] (setting [13]), greater than 50 µM; in experiment [5] (setting [15]) it was greater than 50 µM; in experiment [6] (setting [17]), greater than 50 µM. Further, the Ki in experiment [7] (setting [19]) and in experiment [8] (setting [21]) was greater than 50 µM throughout. Besides, the 50% inhibitory concentration (IC50) in experiment [2] (setting [10]) turned out to be 179 µM; in experiment [3] (setting [12]), 34.4 µM; in experiment [4] (setting [14]), 558 µM; in experiment [5] (setting [16]) it was 223 µM; in experiment [6] (setting [18]) it was 96.1 µM; in experiment [7] (setting [20]) it was 235 µM. Besides, the concentration for half-maximal inhibition (IC50) in experiment [8] (setting [22]) is 454 µM.

For `CCCCCCCCCC=O` [decanal], the Ki in experiment [1] is less than 10 µM.

`CCCCCC=O` [Hexanal, hexanal]: the 50% inhibitory concentration (IC50) worked out at 99.2 µM in experiment [2]; 441 µM in experiment [3]; 383 µM in experiment [4]; 249 µM in experiment [5]; 200 µM in experiment [6]; 155 µM in experiment [7]. This compound showed a half-maximal inhibitory concentration (IC50) in experiment [8] of 622 µM. Also, the inhibition constant (Ki) in experiment [2] (Ki value, CmedOBP1) was less than 20 µM; in experiment [2] (setting [23]) it was 17.5 µM; in experiment [3] (setting [24]), greater than 50 µM; in experiment [4] it was greater than 50 µM; in experiment [5], greater than 50 µM; in experiment [6], greater than 50 µM. In addition, the Ki in experiment [7] and in experiment [8] was greater than 50 µM in each case.

For `CCCCCCCCCCCCCCCC` [hexadecane], in experiment [1], the Ki is less than 10 µM.
